Reference: ChEMBL document CHEMBL1201862, “PubChem BioAssay data set” (2004)
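Test compounds were applied to cells in 96-well plates for 48 hours at 5 doses. The concentration for 50% growth inhibition is given as GI50.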 The source made the active and inactive calls. Cut-off read from the data, not from the text of the source: active = GI50 up to about 1.1 µM and inactive = higher.

Experiments:
Assay in all cases: growth of human tumour cells (NCI), 48 h
[1] = tested on: RPMI-8226
[2] = tested on: SF-539
[3] = tested on: OVCAR-4
[4] = tested on: HOP-92
[5] = tested on: NCI-H23
[6] = tested on: SK-MEL-5
[7] = tested on: HCC 2998
[8] = tested on: KM12
[9] = tested on: ACHN
[10] = tested on: A549
[11] = tested on: TK-10
[12] = tested on: OVCAR-3
[13] = tested on: NCI-H460
[14] = tested on: EKVX
[15] = tested on: U-251
[16] = tested on: SN12C

SMILES | GI50 [1] | GI50 [2] | GI50 [3] | GI50 [4] | GI50 [5] | GI50 [6] | GI50 [7] | GI50 [8] | GI50 [9] | GI50 [10] | GI50 [11] | GI50 [12] | GI50 [13] | GI50 [14] | GI50 [15] | GI50 [16]
CCCCNC(=O)CCN(C(=O)O)S(=O)(=O)c1ccc(NC(=O)c2ccccc2)cc1 | > 100 µM (inactive) | > 100 µM (inactive) | > 100 µM (inactive) | > 100 µM (inactive) | > 100 µM (inactive) | > 100 µM (inactive) | > 100 µM (inactive) | > 100 µM (inactive) | > 100 µM (inactive) | > 100 µM (inactive) | > 100 µM (inactive) | > 100 µM (inactive) | > 100 µM (inactive) | > 100 µM (inactive) | 77.6 µM (inactive) | > 100 µM (inactive)
Cc1ccc(NC(=O)COC(=O)c2cccc3c(=O)c4ccccc4[nH]c23)cc1 | 87.7 µM (inactive) | 22.9 µM (inactive) | 48.3 µM (inactive) | 82.8 µM (inactive) | 17.8 µM (inactive) | 21.6 µM (inactive) | 37.6 µM (inactive) | 22.1 µM (inactive) | 27 µM (inactive) | 36.6 µM (inactive) | 22 µM (inactive) | 54 µM (inactive) | 35.2 µM (inactive) | 16.8 µM (inactive) | 29.4 µM (inactive) | 32.1 µM (inactive)
Cc1nc2c(s/c(=N\N)n2-c2ccccc2)c(=O)n1C | > 100 µM (inactive) | > 100 µM (inactive) | > 100 µM (inactive) | > 100 µM (inactive) | > 100 µM (inactive) | > 100 µM (inactive) | > 100 µM (inactive) | 80.2 µM (inactive) | > 100 µM (inactive) | > 100 µM (inactive) | > 100 µM (inactive) | – | > 100 µM (inactive) | > 100 µM (inactive) | > 100 µM (inactive) | > 100 µM (inactive)
CCOC(=O)NC(=O)c1cn(CCOCCOC(=O)NCCCCCCNC(=O)OCCOCCn2cc(C(=O)NC(=O)OCC)c(=O)[nH]c2=O)c(=O)[nH]c1=O | > 100 µM (inactive) | > 100 µM (inactive) | > 100 µM (inactive) | > 100 µM (inactive) | > 100 µM (inactive) | > 100 µM (inactive) | > 100 µM (inactive) | > 100 µM (inactive) | > 100 µM (inactive) | > 100 µM (inactive) | > 100 µM (inactive) | > 100 µM (inactive) | > 100 µM (inactive) | > 100 µM (inactive) | > 100 µM (inactive) | > 100 µM (inactive)
COC(=O)c1ccc(Cl)cc1NC(=O)C1CCCCC1 | > 100 µM (inactive) | > 100 µM (inactive) | > 100 µM (inactive) | > 100 µM (inactive) | > 100 µM (inactive) | – | > 100 µM (inactive) | > 100 µM (inactive) | > 100 µM (inactive) | > 100 µM (inactive) | 40 µM (inactive) | > 100 µM (inactive) | – | > 100 µM (inactive) | > 100 µM (inactive) | > 100 µM (inactive)
CNC(=O)OCc1c2ccncc2c(C)c2c1[nH]c1ccc(OC)cc12 | 0.183 µM (active) | 0.154 µM (active) | 0.256 µM (active) | 0.187 µM (active) | 0.115 µM (active) | – | 0.29 µM (active) | 0.573 µM (active) | 0.193 µM (active) | 0.39 µM (active) | 0.953 µM (active) | 0.311 µM (active) | 0.19 µM (active) | 2.21 µM (inactive) | 0.182 µM (active) | 0.678 µM (active)
COC(=O)/C(=N\NC(C)(C)C)C(C(=O)OC)C(=O)C(=O)Nc1cc(Cl)ccc1Cl (stereo not drawn) | – | > 100 µM (inactive) | > 100 µM (inactive) | > 100 µM (inactive) | > 100 µM (inactive) | > 100 µM (inactive) | > 100 µM (inactive) | > 100 µM (inactive) | > 100 µM (inactive) | > 100 µM (inactive) | > 100 µM (inactive) | > 100 µM (inactive) | > 100 µM (inactive) | > 100 µM (inactive) | > 100 µM (inactive) | > 100 µM (inactive)
CC1(C(=O)NCCN(CCNC(=O)C2(C)CC3(C)CC(C)(C2)C(=O)NC3=O)CCNC(=O)C2(C)CC3(C)CC(C)(C2)C(=O)NC3=O)CC2(C)CC(C)(C1)C(=O)NC2=O (stereo not drawn) | > 100 µM (inactive) | > 100 µM (inactive) | > 100 µM (inactive) | < 0.01 µM (active) | > 100 µM (inactive) | – | > 100 µM (inactive) | > 100 µM (inactive) | > 100 µM (inactive) | > 100 µM (inactive) | – | > 100 µM (inactive) | > 100 µM (inactive) | > 100 µM (inactive) | > 100 µM (inactive) | > 100 µM (inactive)
COC1OC(COS(=O)(=O)c2ccc(C)cc2)C(O)C(OS(=O)(=O)c2ccc(C)cc2)C1OS(=O)(=O)c1ccc(C)cc1 (stereo not drawn) | > 100 µM (inactive) | > 100 µM (inactive) | > 100 µM (inactive) | – | > 100 µM (inactive) | > 100 µM (inactive) | > 100 µM (inactive) | > 100 µM (inactive) | > 100 µM (inactive) | > 100 µM (inactive) | – | > 100 µM (inactive) | > 100 µM (inactive) | > 100 µM (inactive) | > 100 µM (inactive) | > 100 µM (inactive)
Cc1nn(C(=O)CC(=O)Nc2ccc(Cl)cc2)c(C)c1/N=N/c1ccccc1C(=O)O | > 100 µM (inactive) | > 100 µM (inactive) | > 100 µM (inactive) | – | > 100 µM (inactive) | > 100 µM (inactive) | > 100 µM (inactive) | > 100 µM (inactive) | – | > 100 µM (inactive) | > 100 µM (inactive) | > 100 µM (inactive) | > 100 µM (inactive) | > 100 µM (inactive) | > 100 µM (inactive) | > 100 µM (inactive)
C/C=C1\CN2CCc3c([nH]c4ccccc34)C2C=C1CCO (stereo not drawn) | > 340 µM (inactive) | > 340 µM (inactive) | – | > 340 µM (inactive) | > 340 µM (inactive) | > 340 µM (inactive) | > 340 µM (inactive) | > 340 µM (inactive) | > 340 µM (inactive) | > 340 µM (inactive) | > 340 µM (inactive) | 231 µM (inactive) | > 340 µM (inactive) | > 340 µM (inactive) | > 340 µM (inactive) | > 340 µM (inactive)
C=C1C(C)C2C(Cc3ccccc3)NC(=O)C23OC(=O)/C=C\CC(=O)CCC(C)C/C=C/C3C1O (stereo not drawn) | – | – | 2.31 µM (inactive) | 0.581 µM (active) | 3.1 µM (inactive) | 3.71 µM (inactive) | 6.19 µM (inactive) | 2.88 µM (inactive) | – | 4.41 µM (inactive) | 0.0834 µM (active) | 1.82 µM (inactive) | 5.85 µM (inactive) | 2.48 µM (inactive) | 2.54 µM (inactive) | 1.93 µM (inactive)
CC(=O)n1c2ccccc2c2nc3nc(Oc4ccc(C)cc4)c4ccccc4c3cc21 | > 100 µM (inactive) | > 100 µM (inactive) | 29.4 µM (inactive) | – | 21.8 µM (inactive) | > 100 µM (inactive) | > 100 µM (inactive) | > 100 µM (inactive) | > 100 µM (inactive) | > 100 µM (inactive) | – | > 100 µM (inactive) | > 100 µM (inactive) | > 100 µM (inactive) | 41.6 µM (inactive) | > 100 µM (inactive)
CNS(=O)(=O)NNS(=O)(=O)c1ccccc1 | > 100 µM (inactive) | > 100 µM (inactive) | – | > 100 µM (inactive) | > 100 µM (inactive) | > 100 µM (inactive) | > 100 µM (inactive) | > 100 µM (inactive) | > 100 µM (inactive) | > 100 µM (inactive) | > 100 µM (inactive) | > 100 µM (inactive) | > 100 µM (inactive) | > 100 µM (inactive) | > 100 µM (inactive) | > 100 µM (inactive)
O=C(/C=C/c1ccccc1)/C=C/c1ccccc1 | 39.3 µM (inactive) | 19.5 µM (inactive) | 22.1 µM (inactive) | 34.8 µM (inactive) | 29.7 µM (inactive) | 33.1 µM (inactive) | 37.8 µM (inactive) | 18 µM (inactive) | 18.9 µM (inactive) | > 100 µM (inactive) | 58.2 µM (inactive) | 23 µM (inactive) | 27.5 µM (inactive) | – | 20.6 µM (inactive) | 20.4 µM (inactive)
O=C(OCCOCCOC(=O)c1c[nH]cc1-c1ccccc1)c1c[nH]cc1-c1ccccc1 | 15 µM (inactive) | 17.9 µM (inactive) | 18.3 µM (inactive) | 20.3 µM (inactive) | 17.1 µM (inactive) | 16.8 µM (inactive) | 21.9 µM (inactive) | 20.2 µM (inactive) | – | 22.2 µM (inactive) | 30.3 µM (inactive) | 22.1 µM (inactive) | 21.2 µM (inactive) | 26.7 µM (inactive) | 17.9 µM (inactive) | 18.1 µM (inactive)
C1C[N+]23CCC[N+]2(C1)CCC3 (stereo not drawn) | – | > 100 µM (inactive) | > 100 µM (inactive) | > 100 µM (inactive) | > 100 µM (inactive) | > 100 µM (inactive) | > 100 µM (inactive) | > 100 µM (inactive) | > 100 µM (inactive) | > 100 µM (inactive) | > 100 µM (inactive) | > 100 µM (inactive) | > 100 µM (inactive) | > 100 µM (inactive) | > 100 µM (inactive) | > 100 µM (inactive)
O=C1CCC2(c3ccc(Cl)cc3)Nc3cc(Cl)ccc3N12 (stereo not drawn) | 16.4 µM (inactive) | 2.3 µM (inactive) | 10.6 µM (inactive) | – | 10.9 µM (inactive) | 12.4 µM (inactive) | – | 12 µM (inactive) | 10.4 µM (inactive) | 11.5 µM (inactive) | – | 10.4 µM (inactive) | – | 15 µM (inactive) | 11.7 µM (inactive) | 15.3 µM (inactive)
